From patent US20240041922A1, “METHODS AND COMPOSITIONS” (Monash University, priority 2020, published 2024)

How the values were obtained:
[1] = system: C2C12 myoblasts; assay: C2C12 myoblast proliferation (EdU incorporation); format: cell-based, mouse
Procedure: Larvae: Labelling and detection was carried out as previously described (Nguyen, P. D. et al. Muscle stem cells undergo extensive clonal drift during tissue growth via Meox1-mediated induction of G2 cell-cycle arrest. […] Cell culture: Cells were incubated for 1 h in media supplemented with 10 μM EdU. […] Cells were processed using the Click-iTTM EdU Alexa FluroTM 647 imaging Kit (Thermo Fisher) following the manufacturer's protocol. The mouse muscle cell line […]. Serial passaging and differentiation of myogenic cells isolated from dystrophic mouse muscle. Nature 270, 725 (1977) were cultured in growth media (Dulbecco's Modified Eagle Medium (4.5 g/l D-Glucose, No L Glutamine, No Sodium Pyruvate (Gibco))+20% Fetal Bovine Solution-One Shot (Gibco)+1% Glut Max 100x (Gibco)). Cells were maintained at 37° C., 5% CO2. Cells at 70% confluence, passage 8 were extracted from T75 flasks with 0.025% Tryspin EDTA (Gibco), neutralised in growth media, spun at 180×g for 5 min to pellet cells. The cells were then resuspended in 10 ml of fresh growth media. 500 μl of cells were plated on a 8-well on cover glass II (Sarstedt) chamber slide at a density of 1×10^3 cells/ml. Cells were left 4 h at 37° C. to re-attach. For drug treatments, the media were supplemented with appropriate doses and cultured for 6 h.

[2] = system: PAX7+ satellite cells; assay: Primary mouse myoblast mono- and co-cultures, PAX7+ satellite cell proliferation (EdU); format: cell-based; conditions: 100 nM inhibitor
Procedure: Larvae: Labelling and detection was carried out as previously described (Nguyen, P. D. et al. Muscle stem cells undergo extensive clonal drift during tissue growth via Meox1-mediated induction of G2 cell-cycle arrest. […] Cell culture: Cells were incubated for 1 h in media supplemented with 10 μM EdU. […] Cells were processed using the Click-iTTM EdU Alexa FluroTM 647 imaging Kit (Thermo Fisher) following the manufacturer's protocol. For isolation of primary mouse myoblasts, limb skeletal muscle from E17.5 C57/BL6J mice were minced and digested in 0.125% Trypsin at 37° C. for 20 min. […] Myoblasts were again depleted for fibroblasts prior to co-culturing on gelatin-coated 48 well plates in DMEM+20% FBS+10% L929-conditioned medium. 100,000 myoblasts were plated with either 7,500 MafB/c-Maf deficient (Maf-DKO) macrophages (Aziz, A., Soucie, E., Sarrazin, […]. MafB/c-Maf deficiency enables self-renewal of differentiated functional macrophages. […] For drug treatments, the media were supplemented with appropriate doses and cultured for 24 h.

Compound	effect on NAMPT-induced myoblast proliferation ([1]; co-administration with NAMPT, 6 h)	effect on macrophage-stimulated satellite cell proliferation ([2]; MB+macrophage co-culture)	effect on NAMPT-stimulated satellite cell proliferation ([2]; with hrNAMPT)	myoblast proliferation, factor added alone ([1]; 6 h in growth media)
O=C(NCC(=O)N1CC[C@H](N[C@H]2CC[C@@](O)(c3ccc(-c4ncccn4)cn3)CC2)C1)c1cccc(C(F)(F)F)c1 [PF-4136309, reference compound]	does not hinder NAMPT's stimulatory effect on myoblast proliferation	had no negative effect	maintained	
mrCCL2: recombinant murine CCL2/MCP-1 (PeproTech), CCR2-specific ligand				failed to increase proliferative rates beyond that of the control
